Results taken from patent publication US11649255B2, “Indazoles as hematopoietic progenitor kinase 1 (HPK1) inhibitors and methods using same” (1st Biotherapeutics, Inc., priority 2020, dated 2023).

The compounds below were run against recombinant human HPK1 (Homo sapiens (Human), UniProt Q92918) (assay: HPK1 kinase assay (ADP-Glo)). Settings: 25 μM ATP, MBP substrate.
Format: biochemical
How it was run: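 Activity was read as ADP formed, detected by ADP-Glo luminescence after the reaction of 5 ng recombinant human HPK1 with MBP and ATP (stocks 0.5 μg/μl and 25 μM) for 40 min at 30 °C. Buffer was Tris pH 7.5 with MgCl2, BSA and DTT, with compound in 0.5% DMSO. IC50 came from inhibition curves.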

recombinant human HPK1, sequence (Q92918 whole entry): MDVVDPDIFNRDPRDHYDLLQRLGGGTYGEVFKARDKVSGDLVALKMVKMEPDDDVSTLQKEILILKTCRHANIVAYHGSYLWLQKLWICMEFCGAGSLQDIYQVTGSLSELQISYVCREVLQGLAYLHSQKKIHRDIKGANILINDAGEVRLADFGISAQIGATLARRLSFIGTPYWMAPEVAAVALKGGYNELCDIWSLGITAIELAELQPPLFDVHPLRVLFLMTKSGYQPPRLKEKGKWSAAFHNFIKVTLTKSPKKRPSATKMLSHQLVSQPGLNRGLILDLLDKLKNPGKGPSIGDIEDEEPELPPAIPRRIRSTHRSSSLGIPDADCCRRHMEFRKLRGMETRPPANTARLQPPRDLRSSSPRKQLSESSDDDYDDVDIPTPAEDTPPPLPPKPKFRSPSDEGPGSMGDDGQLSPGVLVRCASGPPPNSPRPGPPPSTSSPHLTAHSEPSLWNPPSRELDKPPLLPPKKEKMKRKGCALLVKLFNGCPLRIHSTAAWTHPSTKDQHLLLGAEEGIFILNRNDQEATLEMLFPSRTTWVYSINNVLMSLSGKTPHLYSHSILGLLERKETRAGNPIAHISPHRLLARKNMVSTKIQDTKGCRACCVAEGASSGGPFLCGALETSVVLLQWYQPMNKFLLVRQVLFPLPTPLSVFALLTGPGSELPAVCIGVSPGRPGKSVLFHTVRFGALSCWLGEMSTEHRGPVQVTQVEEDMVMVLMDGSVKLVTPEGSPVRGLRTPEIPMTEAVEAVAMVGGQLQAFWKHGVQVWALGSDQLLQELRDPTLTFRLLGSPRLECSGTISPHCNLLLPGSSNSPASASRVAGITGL

| IC50 [nM] | SMILES |
| --- | --- |
| > 1000 | Cc1c(F)cc2[nH]nc(C3CC3)c2c1-c1ccn2nc(NC(=O)[C@@H]3C[C@@H]3F)cc2c1 [Example 473, (1S,2S)-N-(5-(3-cyclopropyl-6-fluoro-5-methyl-1H-indazol-4-yl)pyrazolo[1,5-a]pyridin-2-yl)-2-fluorocyclopropane-1-carboxamide] |
| 101 to 500 | C=Cc1n[nH]c2cc(F)c(C)c(-c3ccn4nc(NC(=O)[C@@H]5C[C@@H]5F)cc4c3)c12 [Example 474, (1S,2S)-2-fluoro-N-(5-(6-fluoro-5-methyl-3-vinyl-1H-indazol-4-yl)pyrazolo[1,5-a]pyridin-2-yl)cyclopropane-1-carboxamide] |
| > 1000 | CCc1n[nH]c2cc(F)c(C)c(-c3ccn4nc(NC(=O)[C@@H]5C[C@@H]5F)cc4c3)c12 [Example 475, (1S,2S)-N-(5-(3-ethyl-6-fluoro-5-methyl-1H-indazol-4-yl)pyrazolo[1,5-a]pyridin-2-yl)-2-fluorocyclopropane-1-carboxamide] |
| < 100 | O=C(Nc1cc2cc(-c3c(Cl)c(F)c(Cl)c4[nH]ncc34)ccn2n1)[C@@H]1C[C@@H]1F [Example 476, (1S,2S)-N-(5-(5,7-dichloro-6-fluoro-1H-indazol-4-yl)pyrazolo[1,5-a]pyridin-2-yl)-2-fluorocyclopropane-1-carboxamide] |
| < 100 | Cc1c(F)c(C)c2[nH]ncc2c1-c1ccn2nc(NC(=O)[C@@H]3C[C@@H]3F)cc2c1 [Example 477, (1S,2S)-2-fluoro-N-(5-(6-fluoro-5,7-dimethyl-1H-indazol-4-yl)pyrazolo[1,5-a]pyridin-2-yl)cyclopropane-1-carboxamide] |
| 501 to 1000 | CP(C)(=O)c1c(F)c(Cl)c(-c2ccn3nc(NC(=O)[C@@H]4C[C@@H]4F)cc3c2)c2cn[nH]c12 [Example 478, (1S,2S)-N-(5-(5-chloro-7-(dimethylphosphoryl)-6-fluoro-1H-indazol-4-yl)pyrazolo[1,5-a]pyridin-2-yl)-2-fluorocyclopropane-1-carboxamide] |
| < 100 | Cc1c(F)c(Cl)c2[nH]ncc2c1-c1ccn2nc(NC(=O)[C@@H]3C[C@@H]3F)cc2c1 [Example 479, (1S,2S)-N-(5-(7-chloro-6-fluoro-5-methyl-1H-indazol-4-yl)pyrazolo[1,5-a]pyridin-2-yl)-2-fluorocyclopropane-1-carboxamide] |
| < 100 | O=C(Nc1cc2cc(-c3c(Cl)c(F)c(Br)c4[nH]ncc34)ccn2n1)[C@@H]1C[C@@H]1F [Example 480, (1S,2S)-N-(5-(7-bromo-5-chloro-6-fluoro-1H-indazol-4-yl)pyrazolo[1,5-a]pyridin-2-yl)-2-fluorocyclopropane-1-carboxamide] |
| < 100 | Cc1c(F)c(F)c2[nH]ncc2c1-c1ccn2nc(NC(=O)[C@@H]3C[C@@H]3F)cc2c1 [Example 481, (1S,2S)-N-(5-(6,7-difluoro-5-methyl-1H-indazol-4-yl)pyrazolo[1,5-a]pyridin-2-yl)-2-fluorocyclopropane-1-carboxamide] |
| < 100 | Cc1c(F)c(C(F)(F)F)c2[nH]ncc2c1-c1ccn2nc(NC(=O)[C@@H]3C[C@@H]3F)cc2c1 [Example 482, (1S,2S)-2-fluoro-N-(5-(6-fluoro-5-methyl-7-(trifluoromethyl)-1H-indazol-4-yl)pyrazolo[1,5-a]pyridin-2-yl)cyclopropane-1-carboxamide] |
| < 100 | C=Cc1cc(C)c(-c2ccn3nc(NC(=O)[C@@H]4C[C@@H]4F)cc3c2)c2cn[nH]c12 [Example 483, (1S,2S)-2-fluoro-N-(5-(5-methyl-7-vinyl-1H-indazol-4-yl)pyrazolo[1,5-a]pyridin-2-yl)cyclopropane-1-carboxamide] |
| < 100 | CSc1c(F)c(Cl)c(-c2ccn3nc(NC(=O)[C@@H]4C[C@@H]4F)cc3c2)c2cn[nH]c12 [Example 485, (1S,2S)-N-(5-(5-chloro-6-fluoro-7-(methylthio)-1H-indazol-4-yl)pyrazolo[1,5-a]pyridin-2-yl)-2-fluorocyclopropane-1-carboxamide] |
| < 100 | CS(=O)(=O)c1c(F)c(Cl)c(-c2ccn3nc(NC(=O)[C@@H]4C[C@@H]4F)cc3c2)c2cn[nH]c12 [Example 486, (1S,2S)-N-(5-(5-chloro-6-fluoro-7-(methylsulfonyl)-1H-indazol-4-yl)pyrazolo[1,5-a]pyridin-2-yl)-2-fluorocyclopropane-1-carboxamide] |
| < 100 | Cc1c(F)c(Br)c2[nH]ncc2c1-c1ccn2nc(NC(=O)[C@@H]3C[C@@H]3F)cc2c1 [Example 487, (1S,2S)-N-(5-(7-bromo-6-fluoro-5-methyl-1H-indazol-4-yl)pyrazolo[1,5-a]pyridin-2-yl)-2-fluorocyclopropane-1-carboxamide] |
| < 100 | Cc1c(F)c(S(C)(=O)=O)c2[nH]ncc2c1-c1ccn2nc(NC(=O)[C@@H]3C[C@@H]3F)cc2c1 [Example 489, (1S,2S)-2-fluoro-N-(5-(6-fluoro-5-methyl-7-(methylsulfonyl)-1H-indazol-4-yl)pyrazolo[1,5-a]pyridin-2-yl)cyclopropane-1-carboxamide] |
| < 100 | Cc1c(F)c(N(C)C)c2[nH]ncc2c1-c1ccn2nc(NC(=O)[C@@H]3C[C@@H]3F)cc2c1 [Example 490, (1S,2S)-N-(5-(7-(dimethylamino)-6-fluoro-5-methyl-1H-indazol-4-yl)pyrazolo[1,5-a]pyridin-2-yl)-2-fluorocyclopropane-1-carboxamide] |
| < 100 | COc1c(F)c(C)c(-c2ccn3nc(NC(=O)[C@@H]4C[C@@H]4F)cc3c2)c2cn[nH]c12 [Example 491, (1S,2S)-2-fluoro-N-(5-(6-fluoro-7-methoxy-5-methyl-1H-indazol-4-yl)pyrazolo[1,5-a]pyridin-2-yl)cyclopropane-1-carboxamide] |
| < 100 | COc1c(F)c(Cl)c(-c2ccn3nc(NC(=O)[C@@H]4C[C@@H]4F)cc3c2)c2cn[nH]c12 [Example 492, (1S,2S)-N-(5-(5-chloro-6-fluoro-7-methoxy-1H-indazol-4-yl)pyrazolo[1,5-a]pyridin-2-yl)-2-fluorocyclopropane-1-carboxamide] |
| < 100 | CCOc1c(F)c(Cl)c(-c2ccn3nc(NC(=O)[C@@H]4C[C@@H]4F)cc3c2)c2cn[nH]c12 [Example 493, (1S,2S)-N-(5-(5-chloro-7-ethoxy-6-fluoro-1H-indazol-4-yl)pyrazolo[1,5-a]pyridin-2-yl)-2-fluorocyclopropane-1-carboxamide] |
| < 100 | CNc1c(F)c(Cl)c(-c2ccn3nc(NC(=O)[C@@H]4C[C@@H]4F)cc3c2)c2cn[nH]c12 [Example 494, (1S,2S)-N-(5-(5-chloro-6-fluoro-7-(methylamino)-1H-indazol-4-yl)pyrazolo[1,5-a]pyridin-2-yl)-2-fluorocyclopropane-1-carboxamide] |
| < 100 | CN1CCN(c2c(F)c(Cl)c(-c3ccn4nc(NC(=O)[C@@H]5C[C@@H]5F)cc4c3)c3cn[nH]c23)CC1 [Example 495, (1S,2S)-N-(5-(5-chloro-6-fluoro-7-(4-methylpiperazin-1-yl)-1H-indazol-4-yl)pyrazolo[1,5-a]pyridin-2-yl)-2-fluorocyclopropane-1-carboxamide] |
| < 100 | CCNc1c(F)c(Cl)c(-c2ccn3nc(NC(=O)[C@@H]4C[C@@H]4F)cc3c2)c2cn[nH]c12 [Example 496, (1S,2S)-N-(5-(5-chloro-7-(ethylamino)-6-fluoro-1H-indazol-4-yl)pyrazolo[1,5-a]pyridin-2-yl)-2-fluorocyclopropane-1-carboxamide] |
| < 100 | CCN(CC)c1c(F)c(Cl)c(-c2ccn3nc(NC(=O)[C@@H]4C[C@@H]4F)cc3c2)c2cn[nH]c12 [Example 497, (1S,2S)-N-(5-(5-chloro-7-(diethylamino)-6-fluoro-1H-indazol-4-yl)pyrazolo[1,5-a]pyridin-2-yl)-2-fluorocyclopropane-1-carboxamide] |
| < 100 | O=C(Nc1cc2cc(-c3c(Cl)c(F)c(N4CCOCC4)c4[nH]ncc34)ccn2n1)[C@@H]1C[C@@H]1F [Example 498, (1S,2S)-N-(5-(5-chloro-6-fluoro-7-morpholino-1H-indazol-4-yl)pyrazolo[1,5-a]pyridin-2-yl)-2-fluorocyclopropane-1-carboxamide] |
| < 100 | O=C(Nc1cc2cc(-c3c(Cl)c(F)c(N4CCCC4)c4[nH]ncc34)ccn2n1)[C@@H]1C[C@@H]1F [Example 499, (1S,2S)-N-(5-(5-chloro-6-fluoro-7-(pyrrolidin-1-yl)-1H-indazol-4-yl)pyrazolo[1,5-a]pyridin-2-yl)-2-fluorocyclopropane-1-carboxamide] |
| 101 to 500 | O=C(Nc1cc2cc(-c3c(Cl)c(F)c(N4CCNCC4)c4[nH]ncc34)ccn2n1)[C@@H]1C[C@@H]1F [Example 500, (1S,2S)-N-(5-(5-chloro-6-fluoro-7-(piperazin-1-yl)-1H-indazol-4-yl)pyrazolo[1,5-a]pyridin-2-yl)-2-fluorocyclopropane-1-carboxamide] |
| < 100 | O=C(Nc1cc2cc(-c3c(Cl)c(F)c(N4CCC4)c4[nH]ncc34)ccn2n1)[C@@H]1C[C@@H]1F [Example 501, (1S,2S)-N-(5-(7-(azetidin-1-yl)-5-chloro-6-fluoro-1H-indazol-4-yl)pyrazolo[1,5-a]pyridin-2-yl)-2-fluorocyclopropane-1-carboxamide] |
| < 100 | CN(C)C1CCC(N(C)c2c(F)c(Cl)c(-c3ccn4nc(NC(=O)[C@@H]5C[C@@H]5F)cc4c3)c3cn[nH]c23)CC1 (stereo partly drawn) [Example 502, (1S,2S)-N-(5-(5-chloro-7-((4-(dimethylamino)cyclohexyl)(methyl)amino)-6-fluoro-1H-indazol-4-yl)pyrazolo[1,5-a]pyridin-2-yl)-2-fluorocyclopropane-1-carboxamide] |
| < 100 | CNC1CCC(N(C)c2c(F)c(Cl)c(-c3ccn4nc(NC(=O)[C@@H]5C[C@@H]5F)cc4c3)c3cn[nH]c23)CC1 (stereo partly drawn) [Example 504, (1S,2S)-N-(5-(5-chloro-6-fluoro-7-(methyl((1R,4R)-4-(methylamino)cyclohexyl)amino)-1H-indazol-4-yl)pyrazolo[1,5-a]pyridin-2-yl)-2-fluorocyclopropane-1-carboxamide] |
